Experimental data from patent US9695193B2, “Inhibitors of Plasmodium falciparum equilibrative nucleoside transporter type I as anti-parasitic compounds” (The Trustees of Columbia University in the City of New York, priority 2013, dated 2017).

molecular target: T1, PfENT1 (Plasmodium falciparum, UniProt Q8IDM6); type: cell-based; conditions: primary HTS, compounds at 10 μM, 125 μM 5-FUrd
T1 construct: expressed in transfected cells; host or cells: fui1Δ yeast (Saccharomyces cerevisiae), co-expressing GFP
Description: A yeast-based high throughput screening (HTS) assay was used to identify compounds that inhibit PfENT1. The compounds described in this application were identified by screening four commercially available, chemical compound libraries obtained from Dr. Donald Landry's laboratory (Department of Medicine, Columbia University). These libraries contain approximately 80,000 unique chemical entities.
In the primary screen the compounds were tested at a concentration of 10 μM. Hits were identified by the growth of fui1Δ yeast expressing PfENT1 and Green Fluorescent Protein (GFP) in the presence of the cytotoxic nucleoside 5-fluorouridine (5-FUrd). 5-FUrd is transported by PfENT1. PfENT1 expressing fui1Δ yeast will only grow in the presence of 125 μM 5-FUrd if a PfENT1 inhibitor blocks the uptake of 5-FUrd into the yeast. Significant yeast growth in the HTS in 384 well plates was determined by two criteria: 1) turbidity as determined by the optical density at 620 nm (OD620) and 2) GFP fluorescence intensity. […] Hits had to be positive by both criteria.

T1 sequence (Q8IDM6 whole entry): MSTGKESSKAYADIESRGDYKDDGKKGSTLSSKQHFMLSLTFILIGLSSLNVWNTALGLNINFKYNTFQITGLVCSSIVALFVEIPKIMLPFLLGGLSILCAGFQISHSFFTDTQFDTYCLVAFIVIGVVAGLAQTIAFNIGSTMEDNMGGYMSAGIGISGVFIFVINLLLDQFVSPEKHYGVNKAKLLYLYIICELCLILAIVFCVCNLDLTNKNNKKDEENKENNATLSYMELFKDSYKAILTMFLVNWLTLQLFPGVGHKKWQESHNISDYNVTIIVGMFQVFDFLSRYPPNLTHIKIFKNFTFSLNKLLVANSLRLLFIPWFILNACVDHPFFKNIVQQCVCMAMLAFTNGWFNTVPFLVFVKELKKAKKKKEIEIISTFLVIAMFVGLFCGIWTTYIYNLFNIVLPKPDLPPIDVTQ

| Structure (SMILES) | Avg Normalized % maximal activity |
| --- | --- |
| O=C1OC(CO)[C@@H](O)C(O)C1O (stereo partly shown) [compound 102] | 4.76% |
| O=C(Nc1ccc(-c2nnc(-c3ccccc3)o2)cc1)c1ccco1 [compound 30, N-[4-(5-phenyl-1,3,4-oxadiazol-2-yl)phenyl]-2-furamide] | 13.43% |
| COc1cc2c(cc1OC)-c1cc3ccc(OC)c(OC)c3c[n+]1CC2 [compound 72] | 6.56% |
| COc1ccc(Cl)cc1C(=O)Nc1cccc(-c2nnc(-c3ccco3)o2)c1 [compound 80, 5-chloro-N-{3-[5-(2-furyl)-1,3,4-oxadiazol-2-yl]phenyl}-2-methoxybenzamide] | 5.99% |
| CC[S+](CC)c1c([O-])[nH]c(=O)n(Cc2ccc(F)cc2)c1=O [compound 131, 5-(diethylsulfonio)-1-(4-fluorobenzyl)-2,6-dioxo-1,2,3,6-tetrahydro-4-pyrimidinolate] | 3.65% |
| COc1ccc(OC)c(NC(=O)CC2Nc3cc(C)c(C)cc3NC2=O)c1 (stereo not shown) [compound 171, N-(2,5-dimethoxyphenyl)-2-(6,7-dimethyl-3-oxo-1,2,3,4-tetrahydro-2-quinoxalinyl)acetamide] | 1.60% |
| O=C(Nc1ccc(-c2nnc(-c3ccco3)o2)cc1)C1CCCO1 (stereo not shown) [compound 26, N-{4-[5-(2-furyl)-1,3,4-oxadiazol-2-yl]phenyl}tetrahydro-2-furancarboxamide] | 15.22% |
| COc1cc(C(=O)Nc2ccc(C(=O)c3cccs3)cc2)cc(OC)c1OC [compound 138, 3,4,5-trimethoxy-N-[4-(2-thienylcarbonyl)phenyl]benzamide] | 3.31% |
| Cc1ccc(NC(=O)Nc2ccc(F)cc2)nc1 [compound 169, N-(4-fluorophenyl)-N′-(5-methyl-2-pyridinyl)urea] | 1.85% |
| Cc1nnc(SCc2csc(-c3ccc4c(c3)OCO4)n2)s1 [compound 46, 2-({[2-(1,3-benzodioxol-5-yl)-1,3-thiazol-4-yl]methyl}thio)-5-methyl-1,3,4-thiadiazole] | 8.94% |
| COc1ccc(-c2cnc3ccccc3n2)cc1NC(=O)c1ccncc1 [compound 15] | 24.18% |
| O=C(Nc1cccc(NC(=O)c2cccs2)c1)c1ccc(Br)o1 [compound 137, 5-bromo-N-{3-[(2-thienylcarbonyl)amino]phenyl}-2-furamide] | 3.37% |
| COc1ccc(Cl)cc1Nc1nnc(-c2cnccn2)s1 [compound 32, N-(5-chloro-2-methoxyphenyl)-5-(2-pyrazinyl)-1,3,4-thiadiazol-2-amine] | 12.03% |
| COC(=O)c1ccccc1NC(=O)c1cccc(NC(=O)c2cccs2)c1C [compound 112, methyl 2-({2-methyl-3-[(2-thienylcarbonyl)amino]benzoyl}amino)benzoate] | 4.55% |
| COc1ccc(NC(=O)COc2ccc3ccc(=O)oc3c2)cc1 [compound 78, N-(4-methoxyphenyl)-2-[(2-oxo-2H-chromen-7-yl)oxy]acetamide] | 6.16% |
| C#C[C@]1(O)CC[C@H]2[C@@H]3CCC4=C(CCC(=O)C4)[C@H]3CC[C@@]21C [compound 74] | 6.35% |
| COc1ccc(NC(=O)C2Cc3ccccc3C(=O)O2)cc1 (stereo not shown) [compound 106, N-(4-methoxyphenyl)-1-oxo-3,4-dihydro-1H-isochromene-3-carboxamide] | 4.69% |
| CNC[C@H](O)[C@@H](O)[C@H](O)[C@H](O)CO [compound 109] | 4.65% |
| CCC(=O)Nc1cccc(-c2nnc(-c3ccccc3C)o2)c1 [compound 114, N-{3-[5-(2-methylphenyl)-1,3,4-oxadiazol-2-yl]phenyl} propanamide] | 4.37% |
| CC(=O)c1ccc(NC(=O)CSc2nnc3c4ccccc4n(C)c3n2)cc1 [compound 143, N-(4-acetylphenyl)-2-[(5-methyl-5H-[1,2,4]triazino [5,6-b]indol-3-yl)thio]acetamide] | 3.07% |
| CCSc1nnc(NC(=O)c2cccc(OC)c2)s1 [compound 113, N-[5-(ethylthio)-1,3,4-thiadiazol-2-yl]-3-methoxybenzamide] | 4.39% |
| CC(C)c1nnc(NC(=O)c2cccc(I)c2)s1 [compound 123, 3-iodo-N-(5-isopropyl-1,3,4-thiadiazol-2-yl)benzamide] | 4.10% |
| CCOC(=O)CSc1nnc2c3ccccc3n(CC)c2n1 [compound 161] | 2.08% |

| Structure (SMILES) | Avg Normalized % maximal activity |
| --- | --- |
| Cc1cc(C)cc(C(=O)Nc2nnc(C)s2)c1 [compound 94, 3,5-dimethyl-N-(5-methyl-1,3,4-thiadiazol-2-yl)benzamide] | 5.01% |
| O=C(Nc1cccc(-c2nc3ncccc3o2)c1)c1ccccc1F [compound 96, 2-fluoro-N-(3-[1,3]oxazolo [4,5-b]pyridin-2-ylphenyl)benzamide] | 4.92% |
| CC1CCc2sc3ncnc(N4CCN(C(=O)c5ccco5)CC4)c3c2C1 (stereo not shown) [compound 21, 4-[4-(2-furoyl)-1-piperazinyl]-6-methyl-5,6,7,8-tetrahydro[1] benzothieno[2,3-d]pyrimidine] | 17.70% |
| Cc1cc2nc(Nc3nc(=O)c(C)c(C)[nH]3)nc(C)c2cc1C [compound 144, 5,6-dimethyl-2-[(4,6,7-trimethyl-2-quinazolinyl)amino]-4(1H)-pyrimidinone] | 3.04% |
| CCc1ccc(C(C)NC(=O)c2nc[nH]n2)cc1 (stereo not shown) [compound 48, N-[1-(4-ethylphenyl)ethyl]-1H-1,2,4-triazole-3-carboxamide] | 8.44% |
| Cc1ccc2oc(-c3ccc(NC(=O)C4CCCO4)cc3)nc2c1 (stereo not shown) [compound 39, N-[4-(5-methyl-1,3-benzoxazol-2-yl)phenyl]tetrahydro-2-furancarboxamide] | 10.52% |
| COc1ccc(C(=O)Nc2cccc(-c3nc4ncccc4o3)c2)cc1 [compound 16, 4-methoxy-N-(3-[1,3]oxazolo [4,5-b]pyridin-2-ylphenyl)benzamide] | 23.87% |
| CC(C(=O)O)c1ccc(-c2ccccc2)c(F)c1 (stereo not shown) [compound 77] | 6.18% |
| CCOc1ccc(N(CC(=O)N2CCN(C)CC2)S(C)(=O)=O)cc1 [compound 50] | 8.23% |
| C1CCN2C[C@@H]3C[C@@H](CN4CCCC[C@@H]34)[C@H]2C1.O=S(=O)(O)O [compound 81] | 5.81% |
| Cc1ccc(C(=O)c2cccc(NC(=O)c3cccs3)c2)cc1C [compound 149, N-[3-(3,4-dimethylbenzoyl)phenyl]-2-thiophene-carboxamide] | 2.71% |
| COC(=O)c1ccccc1NC(=O)c1cccc(NC(=O)c2ccco2)c1C [compound 33, methyl 2-{[3-(2-furoylamino)-2-methylbenzoyl]amino}benzoate] | 11.98% |
| CCOc1cc(-c2noc(CCCC(=O)N3CCCCC3)n2)ccc1OC [compound 64, 1-{4-[3-(3-ethoxy-4-methoxyphenyl)-1,2,4-oxadiazol-5-yl]butanoyl}piperidine] | 7.14% |
| COc1ccc(-c2cnc3ccccc3n2)cc1NC(=O)c1cccs1 [compound 92, N-(2-methoxy-5-(2-quinoxalinyl)phenyl]-2-thiophenecarboxamide] | 5.16% |
| O=C(Nc1cc(-c2nc3ccccc3[nH]2)ccc1Cl)c1ccco1 [compound 103, N-[5-(1H-benzimidazol-2-yl)-2-chlorophenyl]-2-furamide] | 4.74% |
| COc1cccc(C(=O)Nc2ccc(-c3nnc(-c4ccco4)o3)cc2)c1 [compound 35, N-{4-[5-(2-furyl)-1,3,4-oxadiazol-2-yl]phenyl}-3-methoxybenzamide] | 11.40% |
| COc1ccccc1CN1CCN(Cc2ccccn2)CC1 [compound 69, 1-(2-methoxybenzyl)-4-(2-pyridinylmethyl) piperazine] | 6.74% |
| CCC(C(=O)NCc1cccs1)c1ccccc1 (stereo not shown) [compound 165, 2-phenyl-N-(2-thienylmethyl)butanamide] | 2.01% |
| COc1ccc(-c2nc3ccccc3o2)cc1NC(=O)c1cccnc1 [compound 27, N-[5-(1,3-benzoxazol-2-yl)-2-methoxyphenyl] nicotinamide] | 14.03% |
| Cn1c(=O)oc2cc(S(=O)(=O)Nc3ccccc3Br)ccc21 [compound 150, N-(2-bromophenyl)-3-methyl-2-oxo-2,3-dihydro-1,3-benzoxazole-6-sulfonamide] | 2.62% |
| COc1ccc(-c2cc3ccccc3oc2=O)cc1NC(=O)c1cccs1 [compound 67, N-[2-methoxy-5-(2-oxo-2H-chromen-3-yl)phenyl]-2-thiophenecarboxamide] | 6.98% |
| CCSc1nnc(NC(=O)c2cc(Br)ccc2Cl)s1 [compound 125, 5-bromo-2-chloro-N-[5-(ethylthio)-1,3,4-thiadiazol-2-yl]benzamide] | 3.89% |
| O=C(C1CCCCC1)N1CCN(c2ccccn2)CC1 [compound 130, 1-(cyclohexylcarbonyl)-4-(2-pyridinyl)piperazine] | 3.69% |
